Key:
c-Kit = c-Kit (Homo sapiens, UniProt P10721); experiment: c-Kit biochemical assay (AlphaScreen)
Text: AlphaScreen technology is a proximity assay which utilizes the increase in fluorescent signal occurring when donor and acceptor beads are close in proximity. Biotinylated poly(Glu,Tyr) 4:1 is used as the kinase substrate, in conjunction with streptavidin-coated donor beads and anti-phosphortyrosine antibody PY100-coated acceptor beads. Upon phosphorylation, the peptide substrate can bind to both donor and acceptor beads giving rise to an increase in fluorescence. Compounds, ATP, biotinylated poly(Glu, Tyr) and kinases are mixed in a volume of 20 uL for 1 hr at ambient temperature using Greiner 384-well white clear bottom medium binding plates. Following incubation a 10 uL solution containing […] AlphaScreen beads, 75 mM Hepes, pH 7.4, 300 mM NaCl, 120 mM EDTA, 0.3% BSA and 0.03% Tween-20 is added to each well. After 2-16 hr incubation of the beads, plates are read in a Perkin Elmer AlphaQuest reader. The IC50 values correlates well with those of radiometric assays.
c-Kit biochemical activity was assessed using AlphaScreen™ (Perkin Elmer) technology, described above. Test compounds, ATP, biotinylated poly(Glu, Tyr) and c-Kit kinase were combined in a volume of 20 μL in a 384-well white, medium binding microtiter plate (Greiner). Reaction mixtures were incubated for 1 hr at ambient temperature. Reactions were quenched by addition of 10 uL of […] AlphaScreen bead suspension containing 75 mM Hepes, pH 7.4, 300 mM NaCl, 120 mM EDTA, 0.3% BSA and 0.03% Tween-20. After 16 hr incubation at ambient temperature plates were read using an AlphaQuest reader (Perkin Elmer).

flt-3 = molecular target: T1, flt-3 (Homo sapiens, UniProt P36888); experiment: flt-3 Luciferase-Coupled Chemiluminescent Kinase assay (LCCA); type: biochemical
T1 construct: baculovirus expressed human Flt-3 kinase domain R571-S993
T1 sequence (P36888 571-993): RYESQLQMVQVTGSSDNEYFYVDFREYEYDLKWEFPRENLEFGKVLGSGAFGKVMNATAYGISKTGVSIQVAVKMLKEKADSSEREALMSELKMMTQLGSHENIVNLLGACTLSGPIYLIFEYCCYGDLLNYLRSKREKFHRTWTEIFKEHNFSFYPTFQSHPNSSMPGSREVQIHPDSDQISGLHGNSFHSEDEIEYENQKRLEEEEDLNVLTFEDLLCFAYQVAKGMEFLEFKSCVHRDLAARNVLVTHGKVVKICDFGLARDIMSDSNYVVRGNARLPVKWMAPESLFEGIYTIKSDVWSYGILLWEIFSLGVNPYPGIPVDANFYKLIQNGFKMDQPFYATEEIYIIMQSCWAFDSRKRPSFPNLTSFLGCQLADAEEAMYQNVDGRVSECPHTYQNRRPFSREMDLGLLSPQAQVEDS
Description: In the LCCA assays, kinase activity is measured as the percent ATP consumed following the kinase reaction using luciferase-luciferin-coupled chemiluminescence. Greiner 384-well white, clear bottom, medium-binding plates are used for LCCA. Briefly, the kinase reaction is initiated by mixing compounds, ATP and kinase in a 20 uL volume. The mixture is incubated at ambient temperature for 2-4 hrs. At the end of the kinase reaction, a 20 uL luciferase-luciferin mix is added and the chemiluminescent signal is read using a Wallac Victor^2 reader. The luciferase-luciferin mix consists of 50 mM HEPES, pH 7.8, 8.5 ug/mL oxalic acid (pH 7.8), 5 (or 50) mM DTT, 0.4% Triton X-100, 0.25 mg/mL coenzyme A, 63 uM AMP, 28 ug/mL luciferin and 40,000 units of light/mL luciferase. For the LCCA assays, total ATP consumption has been standardized to 25-45% and the IC50 values correlates well with those determined by radiometric assays.
Flt-3 biochemical activity was assessed using a Luciferase-Coupled Chemiluminescent Kinase assay (LCCA) format. Kinase activity was measured as the percent ATP remaining following the kinase reaction. Remaining ATP was detected by luciferase-luciferin-coupled chemiluminescence. Specifically, the reaction was initiated by mixing test compounds, 5 μM ATP, 3 μM poly-EY and 5 nM Flt-3 (baculovirus expressed human Flt-3 kinase domain R571-S993) in a 20 uL assay buffer (20 mM Tris-HCL pH7.5, 10 mM MgCl2, 0.01% Triton X-100, 1 mM DTT, 2 mM MnCl2). The mixture is incubated at ambient temperature for 3 hours after which 20 uL luciferase-luciferin mix is added and the chemiluminescent signal read using a Wallac Victor^2 reader. The luciferase-luciferin mix consists of 50 mM HEPES, pH 7.8, 8.5 ug/mL oxalic acid (pH 7.8), 5 (or 50) mM DTT, 0.4% Triton X-100, 0.25 mg/mL coenzyme A, 63 uM AMP, 28 ug/mL luciferin and 40,000 units of light/mL luciferase.

Sequence of c-Kit (P10721 26-976): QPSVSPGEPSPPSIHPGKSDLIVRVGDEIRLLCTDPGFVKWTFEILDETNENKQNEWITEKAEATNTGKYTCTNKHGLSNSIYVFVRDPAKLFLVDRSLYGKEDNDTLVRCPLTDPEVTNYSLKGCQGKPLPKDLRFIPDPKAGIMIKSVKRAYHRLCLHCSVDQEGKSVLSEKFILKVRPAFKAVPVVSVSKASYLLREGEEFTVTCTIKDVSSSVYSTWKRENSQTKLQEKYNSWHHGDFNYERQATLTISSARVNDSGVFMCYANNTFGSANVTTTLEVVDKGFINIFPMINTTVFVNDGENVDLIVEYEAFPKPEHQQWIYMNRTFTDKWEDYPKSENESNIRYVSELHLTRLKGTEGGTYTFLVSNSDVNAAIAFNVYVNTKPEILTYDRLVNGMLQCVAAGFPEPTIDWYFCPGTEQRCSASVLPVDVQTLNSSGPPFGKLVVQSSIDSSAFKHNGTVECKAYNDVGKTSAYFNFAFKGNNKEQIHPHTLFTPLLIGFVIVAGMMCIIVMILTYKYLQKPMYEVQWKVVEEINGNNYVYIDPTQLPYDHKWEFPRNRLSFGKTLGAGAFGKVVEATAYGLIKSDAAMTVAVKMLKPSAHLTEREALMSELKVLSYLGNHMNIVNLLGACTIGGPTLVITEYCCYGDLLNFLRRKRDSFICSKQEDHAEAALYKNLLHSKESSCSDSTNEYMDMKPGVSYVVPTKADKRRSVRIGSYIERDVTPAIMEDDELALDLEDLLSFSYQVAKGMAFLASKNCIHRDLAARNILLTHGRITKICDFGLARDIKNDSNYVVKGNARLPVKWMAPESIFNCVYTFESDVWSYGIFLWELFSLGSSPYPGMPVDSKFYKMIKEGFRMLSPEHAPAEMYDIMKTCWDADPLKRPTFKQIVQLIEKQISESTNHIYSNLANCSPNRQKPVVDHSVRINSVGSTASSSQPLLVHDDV

IC50 (c-Kit) | IC50 (flt-3) | Compound
< 50 nM | < 50 nM | CN1CCN(c2ccc3nc(-c4cc(-c5ccc(NC(=O)Nc6ccc(C(F)(F)F)cc6)cc5)[nH]n4)[nH]c3c2)CC1 [Entry 13, N-(4-{3-[6-(4-methylpiperazin-1-yl)-1H-benzimidazol-2-yl]-1H-pyrazol-5-yl}phenyl)-N′-[4-(trifluoromethyl)phenyl]urea]
< 50 nM | < 50 nM | Cc1ccc(NC(=O)Nc2ccc(-c3cc(-c4ccc(N5CCN(C)CC5)cc4)[nH]n3)cc2)cc1C [Entry 17, N-(3,4-dimethylphenyl)-N′-(4-{5-[4-(4-methylpiperazin-1-yl)phenyl]-1H-pyrazol-3-yl}phenyl)urea]
< 50 nM | < 50 nM | CN1CCN(c2ccc3nc(-c4cc(-c5ccc(NC(=O)Nc6cccc(C#N)c6)cc5)[nH]n4)[nH]c3c2)CC1 [Entry 24, N-(3-cyanophenyl)-N′-(4-{3-[6-(4-methylpiperazin-1-yl)-1H-benzimidazol-2-yl]-1H-pyrazol-5-yl}phenyl)urea]
< 50 nM | < 50 nM | COc1ccc(NC(=O)Nc2ccc(-c3cc(-c4nc5cc(N6CCN(C)CC6)ccc5[nH]4)n[nH]3)cc2)cc1OC [Entry 26, N-[3,4-bis(methyloxy)phenyl]-N′-(4-{3-[5-(4-methylpiperazin-1-yl)-1H-benzimidazol-2-yl]-1H-pyrazol-5-yl}phenyl)urea]
< 50 nM | < 50 nM | COc1ccc(Cl)cc1NC(=O)Nc1ccc(-c2cc(-c3ccc(N4CCN(C)CC4)cc3)[nH]n2)cc1 [Entry 27, N-[5-chloro-2-(methyloxy)phenyl]-N′-(4-{5-[4-(4-methylpiperazin-1-yl)phenyl]-1H-pyrazol-3-yl}phenyl)urea]
< 50 nM | < 50 nM | CN1CCN(c2ccc(-c3cc(-c4ccc(NC(=O)Nc5ccc(Oc6ccccc6)cc5)cc4)n[nH]3)cc2)CC1 [Entry 28, N-(4-{5-[4-(4-methylpiperazin-1-yl)phenyl]-1H-pyrazol-3-yl}phenyl)-N′-[4-(phenyloxy)phenyl]urea]
< 50 nM | < 50 nM | Cc1ccc(F)cc1NC(=O)Nc1ccc(-c2cc(-c3nc4ccc(N5CCN(C)CC5)cc4[nH]3)n[nH]2)cc1 [Entry 38, N-(5-fluoro-2-methylphenyl)-N′-(4-{3-[6-(4-methylpiperazin-1-yl)-1H-benzimidazol-2-yl]-1H-pyrazol-5-yl}phenyl)urea]
50 to 500 nM | < 50 nM | CN1CCN(c2cccc(-c3cc(-c4ccc(NC(=O)Nc5ccc(Cl)c(C(F)(F)F)c5)cc4)[nH]n3)c2)CC1 [Entry 40, N-[4-chloro-3-(trifluoromethyl)phenyl]-N′-(4-{3-[3-(4-methylpiperazin-1-yl)phenyl]-1H-pyrazol-5-yl}phenyl)urea]
50 to 500 nM | < 50 nM | COc1ccc(NC(=O)Nc2ccc(-c3cc(-c4ccc(N5CCN(C)CC5)cc4)[nH]n3)cc2)c(OC)c1 [Entry 43, N-[2,4-bis(methyloxy)phenyl]-N′-(4-{5-[4-(4-methylpiperazin-1-yl)phenyl]-1H-pyrazol-3-yl}phenyl)urea]
50 to 500 nM | 500 to 5000 nM | CC(C)(C)OC(=O)Nc1ccc(-c2cc(-c3nc4ccccc4[nH]3)n[nH]2)cc1 [Entry 52, 1,1-dimethylethyl{4-[3-(1H-benzimidazol-2-yl)-1H-pyrazol-5-yl]phenyl}carbamate]
500 to 5000 nM | 50 to 500 nM | Oc1ccc(/C=C/c2cc(-c3ccccn3)[nH]n2)cc1 [Entry 62, 4-[(E)-2-(5-pyridin-2-yl-1H-pyrazol-3-yl)ethenyl]phenol]
500 to 5000 nM | 50 to 500 nM | Oc1ccc(/C=C/c2cc(-c3cc4cc(Cl)ccc4o3)n[nH]2)cc1 [Entry 63, 4-{(E)-2-[3-(5-chloro-1-benzofuran-2-yl)-1H-pyrazol-5-yl]ethenyl}phenol]
500 to 5000 nM | 500 to 5000 nM | CCN1CCN(c2ccc3[nH]c(-c4cc(-c5ccc(NC(=O)NC(C)(C)C)cc5)[nH]n4)nc3c2)CC1 [Entry 64, N-(1,1-dimethylethyl)-N′-(4-{3-[5-(4-ethylpiperazin-1-yl)-1H-benzimidazol-2-yl]-1H-pyrazol-5-yl}phenyl)urea]
500 to 5000 nM | 50 to 500 nM | Oc1ccc(/C=C/c2cc(-c3ccncc3)n[nH]2)cc1 [Entry 65, 4-[(E)-2-(3-pyridin-4-yl-1H-pyrazol-5-yl)ethenyl]phenol]
500 to 5000 nM | 500 to 5000 nM | Oc1ccc(/C=C/c2cc(-c3cccc(Cl)c3)n[nH]2)cc1 [Entry 66, 4-{(E)-2-[3-(3-chlorophenyl)-1H-pyrazol-5-yl]ethenyl}phenol]
500 to 5000 nM | 500 to 5000 nM | COc1ccccc1-c1cc(/C=C/c2ccc(O)cc2)n[nH]1 [Entry 67, 4-((E)-2-{5-[2-(methyloxy)phenyl]-1H-pyrazol-3-yl}ethenyl)phenol]
500 to 5000 nM | 50 to 500 nM | Oc1ccc(/C=C/c2cc(-c3ccccc3Cl)n[nH]2)cc1 [Entry 68, 4-{(E)-2-[3-(2-chlorophenyl)-1H-pyrazol-5-yl]ethenyl}phenol]
500 to 5000 nM | 50 to 500 nM | Oc1ccc(/C=C/c2cc(-c3cccnc3)n[nH]2)cc1 [Entry 69, 4-[(E)-2-(3-pyridin-3-yl-1H-pyrazol-5-yl)ethenyl]phenol]
500 to 5000 nM | 500 to 5000 nM | COc1cccc(-c2cc(/C=C/c3ccc(O)cc3)n[nH]2)c1 [Entry 70, 4-((E)-2-{5-[3-(methyloxy)phenyl]-1H-pyrazol-3-yl}ethenyl)phenol]
500 to 5000 nM | 500 to 5000 nM | CC(C)(C)OC(=O)Nc1ccc(-c2cc(/C=C/c3ccccc3)n[nH]2)cc1 [Entry 71, 1,1-dimethylethyl(4-{3-[(E)-2-phenylethenyl]-1H-pyrazol-5-yl}phenyl)carbamate]
500 to 5000 nM | 500 to 5000 nM | Oc1ccc(/C=C/c2cc(-c3ccc(Cl)c(Cl)c3)n[nH]2)cc1 [Entry 72, 4-{(E)-2-[3-(3,4-dichlorophenyl)-1H-pyrazol-5-yl]ethenyl}phenol]
500 to 5000 nM | < 50 nM | Oc1ccc2cc(-c3cc(/C=C/c4ccccc4)[nH]n3)oc2c1 [Entry 73, 2-{5-[(E)-2-phenylethenyl]-1H-pyrazol-3-yl}-1-benzofuran-6-ol]
500 to 5000 nM | 50 to 500 nM | Oc1ccc(/C=C/c2cc(-c3cccc(F)c3)[nH]n2)cc1 [Entry 74, 4-{(E)-2-[5-(3-fluorophenyl)-1H-pyrazol-3-yl]ethenyl}phenol]
500 to 5000 nM | 500 to 5000 nM | c1ccc(-c2cc(-c3nc4ccccc4[nH]3)n[nH]2)cc1 [Entry 75, 2-(5-phenyl-1H-pyrazol-3-yl)-1H-benzimidazole]
500 to 5000 nM | 500 to 5000 nM | Nc1ccc(-c2cc(-c3nc4ccccc4[nH]3)n[nH]2)cc1 [Entry 77, 4-[3-(1H-benzimidazol-2-yl)-1H-pyrazol-5-yl]aniline]
500 to 5000 nM | 500 to 5000 nM | Oc1ccc(/C=C/c2cc(-c3cccc(-c4ccccc4)c3)[nH]n2)cc1 [Entry 78, 4-[(E)-2-(5-biphenyl-3-yl-1H-pyrazol-3-yl)ethenyl]phenol]

Reference: patent US8710038B2, “Pyrazole kinase modulators and methods of use” (Exelixis, Inc., priority 2004, dated 2014)
